# According to patent US20030175979A1, “System and method for characterizing metabolites using hydrogen/deuterium exchange” (priority 2002, published 2003):
# “Also recorded” adds a separate entry of the source.
# Tests used:
# dog liver hepatocytes = test: Incubation of [14C]PD 0200126 with dog hepatocytes, radiochromatographic metabolite profile; assay type: in vitro ADME; conditions: [14C]PD 0200126 incubated with dog hepatocytes for 180 minutes; flow-through radioactivity detector
# Description: In Vitro Study. A proposed metabolite M2 (PD 0200126-glucuronide) was formed following incubation of [^14C]PD 0200126 with dog liver hepatocytes for 180 minutes.
# Apparatus and Conditions. An Agilent 1100 HPLC system (Agilent Technologies, Wilmington, Del.), including pumps, autoinjector, and UV detector, was used to separate the metabolites. Separation of the metabolites was achieved using a Metasil AQ guard column (Metachem Technologies, Torrance, Calif.) and a 150 mm×4.6 mm MetaChem Polaris C-18 reversed-phase HPLC column (Metachem Technologies). […]
# After passing through the UV detector (280 nm), the HPLC effluent was split so that 20%-30% of the flow was introduced into the mass spectrometer via an ESI source supplied with the mass spectrometer, while 70%-80% was diverted to the radioactivity detector (β-RAM, IN/US, Tampa, Fla.). The analog output from the UV detector, along with the MS signal, were recorded in real time by the data system provided with the mass spectrometer (Xcalibur V 1.2, ThermoFinnigan). […] The β-RAM data was integrated to obtain semi-quantitative information about the metabolites and the unchanged drug. The delay in response between the radioactivity detector and the MS was 0.2 min -0.4 min with the MS response being recorded first. […]
# [1] = Metabolite profile in rabbit plasma after oral administration of PD 0200126 (LC-UV/MS); assay type: in vivo; conditions: 300 mg/kg oral PD 0200126, UV 280 nm and LC-MS
# Description: In Vivo Studies. To obtain plasma samples, blood from rabbits was collected at various time points following a 300 mg/kg oral administration of PD 0200126. Plasma was precipitated by addition of 3 volumes of acetonitrile to 1 volume of plasma and then centrifuged. The resulting supernatant was decanted off, dried, and subsequently reconstituted in the mobile phase solvent (described below) prior to injection in the HPLC. A 100-μL aliquot was injected for each experiment (run).
# Apparatus and Conditions. An Agilent 1100 HPLC system (Agilent Technologies, Wilmington, Del.), including pumps, autoinjector, and UV detector, was used to separate the metabolites. Separation of the metabolites was achieved using a Metasil AQ guard column (Metachem Technologies, Torrance, Calif.) and a 150 mm×4.6 mm MetaChem Polaris C-18 reversed-phase HPLC column (Metachem Technologies). The mobile phase comprised 20-mM ammonium acetate in water adjusted to pH 4 with acetic acid (Solvent A) and acetonitrile (Solvent B), and was maintained at a constant flow rate (1 mL/min) throughout each run. Gradient elution of the metabolites was achieved using programmed stepwise changes of solvent A/B ratios of 95/5, 50/50, 25/75, 5/95, and 95/5 at 0, 40, 50, 60, and 75 min, respectively.
# After passing through the UV detector (280 nm), the HPLC effluent was split so that 20%-30% of the flow was introduced into the mass spectrometer via an ESI source supplied with the mass spectrometer, while 70%-80% was diverted to the radioactivity detector (β-RAM, IN/US, Tampa, Fla.). The analog output from the UV detector, along with the MS signal, were recorded in real time by the data system provided with the mass spectrometer (Xcalibur V 1.2, ThermoFinnigan). A separate software program (Win-Flow V 1.5, IN/US, Tampa, Fla.) was used to control the β-RAM and to collect the analog output from the β-RAM. The β-RAM data was integrated to obtain semi-quantitative information about the metabolites and the unchanged drug. The delay in response between the radioactivity detector and the MS was 0.2 min -0.4 min with the MS response being recorded first.
# Trace amounts of PD 0200126 and M10 were also observed at m/z 425 and 409, respectively. Metabolites M1-M6 were characterized in a separate study involving rat and mouse hepatocytes.
share of the total radioactivity associated with the component (dog liver hepatocytes),abundance of drug/metabolite in plasma (UV component / extracted ion chromatogram) [1],SMILES,abundance of drug/metabolite in plasma (UV component / extracted ion chromatogram) ([1]; 300 mg/kg)
more than 90%,,"CC(C)[C@@H](NS(=O)(=O)c1ccc(-c2ccc(Br)cc2)cc1)C(=O)NOC1OC(C(=O)O)C(O)C(O)C1O (stereo partly drawn) [Metabolite M2, PD 0200126-glucuronide]",
,prominent UV components,"NS(=O)(=O)c1ccc(-c2ccc(Br)cc2)cc1 [Metabolite M8, bromo-biphenylsulfonamide]",
minor amounts,prominent UV components,"CC(C)[C@@H](NS(=O)(=O)c1ccc(-c2ccc(Br)cc2)cc1)C(=O)O [Metabolite M9, PD 0200126-carboxylic acid]",
,,CC(C)[C@@H](NS(=O)(=O)c1ccc(-c2ccc(Br)cc2)cc1)C(N)=O [Metabolite M10],Trace amounts; also recorded: minor UV component
,Trace amounts,"CC(C)[C@@H](NS(=O)(=O)c1ccc(-c2ccc(Br)cc2)cc1)C(=O)NO [PD 0200126, 2-(4′-bromo-biphenyl-4-sulfonylamino)-N-hydroxy-3-methyl-butyramide]",
